Assay results reported in US20070254312A1, “Protein Kinase Inhibitors and Methods for Identiying Same” (priority 2004, published 2007).
Starred links: 1 amine or outer side, 2 acyl side, 3 side chain; linkers in the order of their positions; H or OH if unused. Non-standard residues stand in square brackets, D forms with d. Residues, ends and D or L forms follow the SMILES beside them. *: point of attachment. Benzoyl(4-(pyrrol-1-yl)) = O=C(c1ccc(-n2cccc2)cc1)*; Phenylacetyl(3,4-Cl2) = O=C(Cc1ccc(Cl)c(Cl)c1)*; Cysteamide = C(CS[*:3])N[*:1]; Dap = NC[C@H](N)C(=O)O

Tests used:
PKCθ = PKCθ (Homo sapiens, UniProt Q04759); design: purchased Panvera; details: literature values; relative to most potently inhibited isoform (=1); cited from earlier work
PKCε [1] = target: T1, PKCε (Homo sapiens, UniProt Q02156); design: purchased Panvera; details: literature values; relative to most potently inhibited isoform (=1); cited from earlier work
T1 sequence (Q02156 1-737): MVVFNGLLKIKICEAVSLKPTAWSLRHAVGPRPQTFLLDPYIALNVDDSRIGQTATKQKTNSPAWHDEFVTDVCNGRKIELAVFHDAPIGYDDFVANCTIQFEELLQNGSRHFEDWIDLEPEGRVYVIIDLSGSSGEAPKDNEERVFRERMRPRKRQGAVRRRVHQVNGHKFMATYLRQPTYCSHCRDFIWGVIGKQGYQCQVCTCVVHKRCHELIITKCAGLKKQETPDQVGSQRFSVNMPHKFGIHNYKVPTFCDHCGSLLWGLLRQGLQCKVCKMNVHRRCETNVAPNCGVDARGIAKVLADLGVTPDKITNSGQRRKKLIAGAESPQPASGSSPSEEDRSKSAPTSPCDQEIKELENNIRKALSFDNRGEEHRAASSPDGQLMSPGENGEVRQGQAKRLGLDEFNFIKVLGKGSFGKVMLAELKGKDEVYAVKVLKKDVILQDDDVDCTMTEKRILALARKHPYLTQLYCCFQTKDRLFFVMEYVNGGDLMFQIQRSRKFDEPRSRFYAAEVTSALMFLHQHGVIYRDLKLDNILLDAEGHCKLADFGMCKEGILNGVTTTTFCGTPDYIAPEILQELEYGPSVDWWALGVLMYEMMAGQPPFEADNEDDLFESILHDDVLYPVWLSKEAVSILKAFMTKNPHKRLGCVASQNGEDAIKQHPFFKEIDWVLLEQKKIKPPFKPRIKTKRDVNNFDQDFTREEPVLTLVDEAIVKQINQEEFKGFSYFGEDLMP

PKC β1 = PKC β1 (Homo sapiens, UniProt P05771); details: literature values; relative to most potently inhibited isoform (=1); cited from earlier work
PKCα = PKCα (Homo sapiens, UniProt P17252); details: cited from earlier work
PKCζ [2] = target: T2, PKCζ (Homo sapiens, UniProt Q05513); test: PKC isoform assay, Example 1; assay type: biochemical; design: purchased Pan Vera
T2 sequence (Q05513 1-592): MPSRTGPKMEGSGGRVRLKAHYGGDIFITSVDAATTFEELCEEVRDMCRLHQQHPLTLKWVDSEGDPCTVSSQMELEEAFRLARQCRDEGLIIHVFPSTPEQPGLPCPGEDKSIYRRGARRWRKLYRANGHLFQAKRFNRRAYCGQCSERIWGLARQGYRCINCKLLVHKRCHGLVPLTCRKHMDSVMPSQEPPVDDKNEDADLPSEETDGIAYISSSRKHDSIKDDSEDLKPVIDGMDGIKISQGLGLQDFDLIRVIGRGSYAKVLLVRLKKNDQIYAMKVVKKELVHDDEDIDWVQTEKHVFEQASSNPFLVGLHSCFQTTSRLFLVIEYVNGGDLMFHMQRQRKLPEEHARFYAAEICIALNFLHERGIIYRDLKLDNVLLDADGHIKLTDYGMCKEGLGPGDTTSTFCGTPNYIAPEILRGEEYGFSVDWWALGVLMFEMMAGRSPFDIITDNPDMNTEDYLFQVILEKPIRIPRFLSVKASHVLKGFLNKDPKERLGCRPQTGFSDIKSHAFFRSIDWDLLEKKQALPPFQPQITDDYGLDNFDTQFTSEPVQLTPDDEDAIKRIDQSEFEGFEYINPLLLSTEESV
Method: (§1) Protein Kinase C Assay (general). The peptides Ac-Ser-Phe-Arg-Arg-Arg-NH2 (for PKC α, β and γ) and acetyl-[…]NH2 (for PKC ε and ζ) were used as substrates.
(§2) PKCε and ζ Assay (IC50 determinations). […] 10 μL enzyme diluted buffer containing 10 mM HEPES (pH 7.5), 10 mM DTT, BSA(3.8 mg/mL), 10 mM EDTA.4Na.2H2O and PKC (20 ng/μL) were added last to this buffer. Reactions were carried out as described above for the Protein Kinase Cα assay.

PKCε [3] = target: T1, PKCε; test: PKC isoform assay, Example 1; assay type: biochemical; design: purchased Pan Vera
Method: as §1, §2

PKCγ = PKCγ (Homo sapiens, UniProt P05129); design: purchased Panvera; details: literature values; relative to most potently inhibited isoform (=1); cited from earlier work
PKCβ = target: T3, PKCβ (Homo sapiens, UniProt P05771); test: PKC isoform assay, Example 1; assay type: biochemical
T3 construct: purchased Pan Vera
Method: Protein Kinase C Assay (general). The peptides […] (for PKC α, β and γ) and acetyl-[…] (for PKC ε and ζ) were used as substrates. […] Total reaction volume was 50 μL. […] Following an additional 5 min incubation at ambient temperature, 75 μL from each reaction well was transferred into each well of a Unifilter (P81 cellulose phosphate paper) assay plate and washed four times with 0.1% phosphoric acid in water. […] IC50 values were calculated using GraFit (Erithacus Software Limited) and Ki values were calculated using Enzyme Kinetics, SigmaPlot (SPSS Inc.)

PKCζ [4] = target: T2, PKCζ; design: purchased Panvera; details: literature values; relative to most potently inhibited isoform (=1); cited from earlier work
PKCη = PKCη (Homo sapiens, UniProt P24723); design: purchased Panvera; details: literature values; relative to most potently inhibited isoform (=1); cited from earlier work
PKCη, sequence (P24723 whole entry, canonical isoform): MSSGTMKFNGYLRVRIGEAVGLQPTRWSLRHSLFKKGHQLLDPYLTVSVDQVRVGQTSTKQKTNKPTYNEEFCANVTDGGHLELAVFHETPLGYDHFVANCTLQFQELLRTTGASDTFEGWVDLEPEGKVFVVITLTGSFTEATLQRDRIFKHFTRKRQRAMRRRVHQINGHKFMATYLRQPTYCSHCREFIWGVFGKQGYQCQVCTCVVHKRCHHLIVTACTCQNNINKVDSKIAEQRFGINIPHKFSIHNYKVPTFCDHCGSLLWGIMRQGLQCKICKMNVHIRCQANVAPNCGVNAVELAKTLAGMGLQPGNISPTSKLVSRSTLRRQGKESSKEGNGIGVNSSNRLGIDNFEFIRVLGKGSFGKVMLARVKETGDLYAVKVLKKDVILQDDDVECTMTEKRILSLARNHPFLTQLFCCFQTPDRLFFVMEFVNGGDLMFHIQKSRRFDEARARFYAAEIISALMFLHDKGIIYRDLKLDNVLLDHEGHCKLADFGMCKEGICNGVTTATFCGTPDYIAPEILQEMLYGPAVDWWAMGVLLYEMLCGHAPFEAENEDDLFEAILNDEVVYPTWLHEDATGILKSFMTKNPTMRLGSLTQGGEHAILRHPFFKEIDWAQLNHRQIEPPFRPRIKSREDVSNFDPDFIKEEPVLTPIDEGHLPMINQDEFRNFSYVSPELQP

PKCθ, sequence (Q04759 whole entry, canonical isoform): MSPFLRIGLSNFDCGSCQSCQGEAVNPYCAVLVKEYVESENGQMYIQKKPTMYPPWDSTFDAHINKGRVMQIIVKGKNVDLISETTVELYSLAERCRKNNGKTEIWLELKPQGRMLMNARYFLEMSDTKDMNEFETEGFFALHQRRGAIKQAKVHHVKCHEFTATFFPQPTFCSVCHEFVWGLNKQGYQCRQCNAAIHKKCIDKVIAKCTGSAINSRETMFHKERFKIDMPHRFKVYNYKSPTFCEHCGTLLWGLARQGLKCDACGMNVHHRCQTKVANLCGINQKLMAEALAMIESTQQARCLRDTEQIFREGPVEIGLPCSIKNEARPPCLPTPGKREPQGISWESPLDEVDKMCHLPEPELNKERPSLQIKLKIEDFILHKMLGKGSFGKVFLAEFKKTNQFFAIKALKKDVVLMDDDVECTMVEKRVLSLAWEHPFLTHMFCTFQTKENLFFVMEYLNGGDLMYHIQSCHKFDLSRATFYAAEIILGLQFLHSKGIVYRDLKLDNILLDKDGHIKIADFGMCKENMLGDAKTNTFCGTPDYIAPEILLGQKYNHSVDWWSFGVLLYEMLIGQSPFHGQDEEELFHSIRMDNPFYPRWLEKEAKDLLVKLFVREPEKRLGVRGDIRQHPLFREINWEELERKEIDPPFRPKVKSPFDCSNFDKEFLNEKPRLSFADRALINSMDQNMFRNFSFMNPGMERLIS
T3 sequence (P05771 whole entry, canonical isoform): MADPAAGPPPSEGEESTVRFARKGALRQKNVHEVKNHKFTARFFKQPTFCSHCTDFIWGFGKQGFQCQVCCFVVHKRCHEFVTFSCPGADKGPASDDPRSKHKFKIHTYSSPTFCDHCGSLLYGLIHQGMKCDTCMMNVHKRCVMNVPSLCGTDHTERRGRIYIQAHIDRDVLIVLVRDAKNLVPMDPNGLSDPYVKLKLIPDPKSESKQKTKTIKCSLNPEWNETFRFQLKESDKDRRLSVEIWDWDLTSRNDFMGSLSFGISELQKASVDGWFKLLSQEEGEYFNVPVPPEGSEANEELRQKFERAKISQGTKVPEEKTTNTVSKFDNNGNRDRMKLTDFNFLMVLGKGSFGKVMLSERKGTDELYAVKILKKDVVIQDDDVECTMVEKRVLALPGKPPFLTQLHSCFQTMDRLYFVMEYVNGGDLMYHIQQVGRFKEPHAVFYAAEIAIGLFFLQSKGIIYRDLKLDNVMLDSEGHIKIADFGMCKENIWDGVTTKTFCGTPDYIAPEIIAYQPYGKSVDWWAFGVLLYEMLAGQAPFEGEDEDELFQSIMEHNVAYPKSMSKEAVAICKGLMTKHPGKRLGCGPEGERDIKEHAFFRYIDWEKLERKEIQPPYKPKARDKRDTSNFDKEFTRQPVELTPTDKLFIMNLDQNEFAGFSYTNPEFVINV
PKC β1, sequence (P05771 whole entry, canonical isoform): as above

SMILES: CC(C)C[C@H](NC(=O)[C@H](C)NC(=O)CNC(=O)[C@H](CCCNC(=N)N)NC(=O)[C@H](CCCNC(=N)N)NC(=O)[C@H](C)NC(=O)Cc1ccc(Cl)c(Cl)c1)C(=O)N[C@@H](CCCNC(=N)N)C(=O)N[C@@H](CNC(=O)c1ccc(-n2cccc2)cc1)C(=O)N[C@@H](C)C(=O)NCCS [Compound 6] ({Phenylacetyl(3,4-Cl2)}-ARRGALR[Dap](Benzoyl(4-(pyrrol-1-yl)))A-Cysteamide)
- Fold selectivity (IC50), PKC θ (PKCθ): 1210 fold
- Fold selectivity (IC50), PKC ε (PKCε [1]): 600 fold
- Fold selectivity (IC50), PKC β1 (PKC β1): 385 fold
- Ki (PKCα; Lee et al., 2004, equals the Ki of compound 6 in Table 1, read-out: IC50 or Ki of the most potently inhibited isoform, PKC α (in parentheses)): 0.8 nM
- Fold selectivity (IC50), PKC α (PKCα; literature values, relative to most potently inhibited isoform (=1)): 1 fold
- selectivity for PKCα versus PKCζ (PKCζ [2]): 640 fold
- selectivity for PKCα versus PKCε (PKCε [3]): 600 fold
- Fold selectivity (IC50), PKC γ (PKCγ): 580 fold
- selectivity for PKCα versus PKCβ (PKCβ): 385 fold
- Fold selectivity (IC50), PKC ζ (PKCζ [4]): 640 fold
- Fold selectivity (IC50), PKC η (PKCη): 1310 fold
